In US20060142204A1, “Pyrrolidine derivatives for use in treating heaptitis c virus infection” (GENOSCIENCE, priority 2002, published 2006):
Read-outs that look alike come from different tables or passages of the source. Non-standard residues stand in square brackets, D forms with d. Residues, ends and D or L forms follow the SMILES beside them. *: point of attachment. dGla = N[C@H](CC(C(=O)O)C(=O)O)C(=O)O; Hyp = O=C(O)[C@@H]1C[C@@H](O)CN1; Cha = N[C@@H](CC1CCCCC1)C(=O)O; Abu = CC[C@H](N)C(=O)O; tBu = CC(C)(C)*

Columns and labels:
[1] = target: full-length NS3/NS4A complex (Hepatitis C virus genotype 1a, UniProt P27958); test: biochemical
Chain of full-length NS3/NS4A complex (P27958 1027-1657): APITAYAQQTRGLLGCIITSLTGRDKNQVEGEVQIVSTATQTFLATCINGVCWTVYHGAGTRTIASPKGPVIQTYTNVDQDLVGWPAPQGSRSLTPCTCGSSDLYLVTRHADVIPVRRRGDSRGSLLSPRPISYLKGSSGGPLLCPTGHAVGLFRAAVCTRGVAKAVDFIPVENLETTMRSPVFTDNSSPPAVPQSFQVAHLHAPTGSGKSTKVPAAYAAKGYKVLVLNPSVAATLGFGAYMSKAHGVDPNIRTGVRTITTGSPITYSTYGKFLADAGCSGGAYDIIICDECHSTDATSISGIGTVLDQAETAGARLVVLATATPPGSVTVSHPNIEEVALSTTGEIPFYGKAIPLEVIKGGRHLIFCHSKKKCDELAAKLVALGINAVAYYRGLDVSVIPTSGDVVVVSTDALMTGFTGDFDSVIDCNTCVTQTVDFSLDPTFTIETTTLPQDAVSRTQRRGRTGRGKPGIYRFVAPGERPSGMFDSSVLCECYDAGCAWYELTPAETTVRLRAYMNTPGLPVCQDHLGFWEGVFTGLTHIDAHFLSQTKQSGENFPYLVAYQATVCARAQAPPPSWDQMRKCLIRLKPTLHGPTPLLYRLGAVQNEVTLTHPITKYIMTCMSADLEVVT
Chain of full-length NS3/NS4A complex (P27958 1658-1711): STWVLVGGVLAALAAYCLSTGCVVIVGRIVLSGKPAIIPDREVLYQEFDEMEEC
Source text: Operating Method for HCV NS3-4A Activity Assay:
Inhibition data were obtained on the full-length NS3/NS4A complex. […] A summary of the NS3 protease activity assay is described bellow.
We used the full-length NS4A-NS3 protease and a recombinant EGPF-NS5A/B-CBD fusion protein serving as a fluorescent substrate for the determination of the compounds activity.
The fluorogenic substrate was built in three parts: a Green fluorescent protein (EGFP), a peptide corresponding to the NS5A-NS5B junctions ([…]) and a Cellulose Binding Domain (CBD). The NS5A/B is the more efficiently cleavage site for NS3 than at other cleavage site of HCV polyprotein (references 15). After cleavage reaction of EGFP-NS5A/B-CBD by NS3, the un-cleaved substrate and the C-terminal domain of cleaved substrate are fixed on cellulose. After centrifugation, the released free EGFP-NS5A was quantified by fluorometry.
The inhibitors were tested in triplicate in each experiment. The inhibitor was pre-incubated with the NS3 enzyme (50 nM final concentration) for 5 minutes at 37° C. The substrate was added (100 nM final concentration) and incubated at 37° C. for 40 minutes. Then, the reaction mixture was transferred into an Eppendorf containing 5 mg of pre-equilibrated cellulose with reaction buffer 1× and agitated at room temperature for 10 minutes followed by centrifugation for 5 min at 13000 rpm. The supernatant (100 μL) containing liberated green fluorescent protein was transferred to a black 96 well plate and data was collected by a fluorometer (excitation λ=485 nm, and emission λ=538 nm). For each black 96 well plate the control of the activity and inhibition of NS3 protease, fluorescence background noise and the measure of the total fluorescence were performed. The fluorogenic substrate EGFP-NS5A/B-CBD at 100 nM final concentration was incubated with NS3 protease at 50 nM final concentration for the control of the NS3 activity. The inhibitors Ac-Asp-D-Gla-Leu-Ile-β-cyclohexyl-Ala-Cys-OH (CHAC), (references 16) PMSF and TPCK were used at various concentrations to validate the inhibition of NS3 protease reaction. The fluorescence background noise was obtained with the fluorogenic substrate EGFP-NS5A/B-CBD at 100 nM, and the control of the maximum fluorescence was obtained with the fluorogenic substrate EGFP-NS5A/B-CBD at 100 nM without the step of the fixation on pre-equilibrated cellulose.

four different strains = test: ames test; conditions: with or without metabolic activation
Source text: The compounds of the present invention present the advantage to be non bactericidal and/or non mutagenic. The ames test with four different strains, with or without metabolic activation, has been carried out with the above cited compounds (in particular, compound 5). The results thereof have shown that the compounds above identified (in particular, compound 5) are non mutagenic.

HCV = HCV replication in primary cultures of human hepatocytes infected in vitro; type: cell-based, HCV genotype 3 (serum S183) in human hepatocytes; conditions: 1 μM of compound; hepatocyte cultures FT200, FT201, FT203; 5 days; FIG. 5
Method: More particularly, the in vitro primary cultures of human hepatocytes were prepared as follows: hepatocytes were prepared from liver tissue resected from donors who tested negative for HCV, and inoculation was performed 3 days after plating with 33 HCV serum samples of different virus load and genotype. The presence of intracellular HCV RNA, detected by a strand-specific rTth RT-PCR assay, was used as evidence of infection. […] At day 5, the copy level of viral RNA was estimated to be amplified at least 15-fold in infected cells. […] This model represents therefore a valuable tool for the study of initial steps of the HCV replication cycle and for the evaluation of antiviral molecules.
The basic protocol was as follows: 1) human hepatocytes extracted from liver lobectomies of HCV-negative patients were cultured in the long-term culture system mentioned above; 2) cells were then infected in vitro with an aliquot of serum from HCV-positive patients; 3) after a few days of culture (1 to 14 days), cellular RNA was extracted and analyzed for HCV RNA (+) and (−) strands using a highly specific rtTh. […]
RNA was extracted and analyzed using: first, rtTh RT-PCR and agarose gel electrophoresis (control of the presence of the replicative strand); and second, quantitative RT-PCR using (a) the genomic strand of HCV, and (b) GAPDH RNA/GAPDH RNA as an internal control. […]

[2] = enzyme 50 nM, substrate 100 nM, 37° C., 40 minutes, read-out: NS3 IC50

Row | SMILES | IC50 [1] | mutagenicity (ames test) (four different strains) | Inhibitory effect expressed as the ratio HCV RNA/GAPDH RNA (HCV) | IC50 [1, 2]
1 | CC[C@H](C)[C@H](NC(=O)[C@H](CC(C)C)NC(=O)[C@@H](CC(C(=O)O)C(=O)O)NC(=O)[C@H](CC(=O)O)NC(C)=O)C(=O)N[C@@H](CC1CCCCC1)C(=O)N[C@@H](CS)C(=O)O [CHAC, Ac-Asp-D-Gla-Leu-Ile-β-cyclohexyl-Ala-Cys-OH, reference compound] (Ac-D[dGla]LI[Cha]C-OH) | 0.04 µM | – | – | –
2 | CC(C)(C)OC(=O)N[C@@H](CCC(=O)O)C(=O)N1C[C@H](OC(C)(C)C)C[C@H]1C(=O)NC(CC(F)(F)F)C(=O)O (stereo partly drawn) [Compound 5] | – | non mutagenic | significant inhibitory effect | 150 µM
3 | CC[C@H](NC(=O)[C@@H]1C[C@@H](OC(C)(C)C)CN1C(=O)[C@@H](NC(C)=O)C(C)C)C(=O)O [Compound 18] (Ac-Val-[Hyp](tBu)-[Abu]-OH) | – | – | – | 30 µM
4 | Cc1ccc(S(=O)(=O)NC(Cc2ccccc2)C(=O)CCl)cc1 [TPCK, L-1-4′-Tosylamino-2-phenylethyl chloromethyl ketone, reference compound] | 900 µM | – | – | –
